Source: BindingDB's records for doi:10.1016/S0960-894X(01)80753-8 (1993)

What follows are compounds tested against Platelet-activating factor receptor (Oryctolagus cuniculus) (assay: Inhibition of [3H]PAF binding to rabbit platelet membranes).

SMILES	Ki
O=C(c1ccccc1)c1cccc(NC(=O)[C@@H]2OC(=O)N3[C@H](c4cccnc4)SC[C@@H]23)c1 [(1R,5S,7aR)-3-Oxo-5-pyridin-3-yl-dihydro-thiazolo[3,4-c]oxazole-1-carboxylic acid (3-benzoyl-phenyl)-amide]	2500 nM
O=C(c1ccccc1)c1cccc(NC(=O)[C@H]2OC(=O)N3[C@@H](c4cccnc4)SC[C@@H]23)c1 [(1S,5R,7aR)-3-Oxo-5-pyridin-3-yl-dihydro-thiazolo[3,4-c]oxazole-1-carboxylic acid (3-benzoyl-phenyl)-amide]	24 nM
O=C(c1ccccc1)c1cccc(NC(=O)[C@@H]2CSC(c3cccnc3)N2)c1 (stereo partly drawn) [(R)-2-Pyridin-3-yl-thiazolidine-4-carboxylic acid (3-benzoyl-phenyl)-amide]	5 nM

The remaining compounds from weak to strong by Ki, led by results:

Ki	SMILES
1200 nM	O=C(c1ccccc1)c1cccc(NC(=O)[C@@H]2OC(=O)N3[C@@H](c4cccnc4)SC[C@@H]23)c1 [(1R,5R,7aR)-3-Oxo-5-pyridin-3-yl-dihydro-thiazolo[3,4-c]oxazole-1-carboxylic acid (3-benzoyl-phenyl)-amide]
150 nM	O=C(c1ccccc1)c1cccc(NC(=O)[C@H]2OC(=O)N3[C@H](c4cccnc4)SC[C@@H]23)c1 [(1S,5S,7aR)-3-Oxo-5-pyridin-3-yl-dihydro-thiazolo[3,4-c]oxazole-1-carboxylic acid (3-benzoyl-phenyl)-amide]
